Reference: US9694016B2 (Novartis AG, priority 2013, dated 2017)
Like-named read-outs stand apart in the source and are kept apart here.

Columns and labels:
[1] = biological target: C-Raf TR (truncated C-Raf protein, Δ1-324 deletion mutant) (Homo sapiens (Human), UniProt P04049); assay type: biochemical; details: truncated C-Raf approximately 4 nM, ATP 1 uM, 60 min pre-incubation, 1 hour reaction
Protocol: biotinylated Mek, kinase dead
biotinylated Mek, Kinase dead approximately 10 nM

b-Raf (V600E) [2] = biological target: T1, b-Raf (V600E) (Homo sapiens (Human), UniProt P15056, V600E); details: read-out: b-Raf IC-50; Table 2; AlphaScreen, 3 hours reaction
b-Raf (V600E) [3] = biological target: T1, b-Raf (V600E); assay: biochemical

T1 sequence (P15056 whole entry V600E): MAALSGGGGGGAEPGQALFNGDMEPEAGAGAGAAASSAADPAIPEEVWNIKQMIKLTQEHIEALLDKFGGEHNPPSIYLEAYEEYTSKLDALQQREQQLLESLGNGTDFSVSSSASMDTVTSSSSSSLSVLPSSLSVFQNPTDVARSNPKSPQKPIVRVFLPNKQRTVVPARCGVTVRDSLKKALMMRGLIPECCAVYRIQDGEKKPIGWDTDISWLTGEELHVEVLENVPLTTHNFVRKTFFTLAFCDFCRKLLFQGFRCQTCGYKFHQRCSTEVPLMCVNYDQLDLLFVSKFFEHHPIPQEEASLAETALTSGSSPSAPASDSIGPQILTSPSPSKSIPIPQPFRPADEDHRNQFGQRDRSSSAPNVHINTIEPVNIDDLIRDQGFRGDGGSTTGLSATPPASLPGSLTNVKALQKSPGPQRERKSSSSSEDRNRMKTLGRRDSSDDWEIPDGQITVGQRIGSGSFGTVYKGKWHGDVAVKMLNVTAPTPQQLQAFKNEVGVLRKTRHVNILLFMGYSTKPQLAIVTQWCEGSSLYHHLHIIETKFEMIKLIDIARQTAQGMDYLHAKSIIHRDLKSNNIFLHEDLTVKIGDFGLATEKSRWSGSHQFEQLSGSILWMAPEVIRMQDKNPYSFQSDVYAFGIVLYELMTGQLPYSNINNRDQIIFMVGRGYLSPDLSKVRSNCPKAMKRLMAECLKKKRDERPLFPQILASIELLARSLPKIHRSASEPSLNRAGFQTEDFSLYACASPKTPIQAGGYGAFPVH

Structure (SMILES)	IC50 [1]	IC50 (b-Raf (V600E) [2])	IC50 (b-Raf (V600E) [3])
Cc1ccc(C(=O)Nc2cccc(C(F)(F)F)c2)cc1-c1nc(N2CCOCC2)cc(N2CCOCC2)n1 [Example 14, 3-(4,6-dimorpholinopyrimidin-2-yl)-4-methyl-N-(3-(trifluoromethyl)phenyl)benzamide]	0.803 nM	–	–
Cc1ccc(C(=O)Nc2cccc(C(F)(F)F)c2)cc1-c1ccnc(N2CCOCC2)c1 [Example 63, 4-Methyl-3-(2-morpholinopyridin-4-yl)-N-(3-(trifluoromethyl)phenyl)benzamide]	0.508 nM	2.1 nM	–
Cc1ccc(NC(=O)c2cccc(C(F)(F)F)c2)cc1-c1cncc(N2CCOCC2)n1 [Example 118, N-(4-methyl-3-(6-morpholinopyrazin-2-yl)phenyl)-3-(trifluoromethyl)benzamide]	0.308 nM	0.7 nM	–
Cc1ccc(NC(=O)c2cn(C)nc2C)cc1-c1cc2[nH]cnc2c(N2CCOCC2)n1 [Example 815, 1,3-dimethyl-N-(4-methyl-3-(4-morpholino-1H-imidazo[4,5-c]pyridin-6-yl)phenyl)-1H-pyrazole-4-carboxamide]	–	–	100 nM
Cc1ccc(NC(=O)c2cc(C3CC3)nn2C)cc1-c1cc2[nH]cnc2c(N2CCOCC2)n1 [Example 818, 3-cyclopropyl-1-methyl-N-(4-methyl-3-(4-morpholino-1H-imidazo[4,5-c]pyridin-6-yl)phenyl)-1H-pyrazole-5-carboxamide]	–	–	18.4 nM
Cc1ccc(NC(=O)c2cccc(-c3nnco3)c2)cc1-c1cc2[nH]cnc2c(N2CCOCC2)n1 [Example 822, N-(4-methyl-3-(4-morpholino-1H-imidazo[4,5-c]pyridin-6-yl)phenyl)-3-(1,3,4-oxadiazol-2-yl)benzamide]	–	–	7.7 nM
CCNc1nc(-c2cc(C(=O)Nc3cccc(C(F)(F)F)c3)ccc2C)cc(N2CCOCC2)n1 [Example 710, 3-(2-(ethylamino)-6-morpholinopyrimidin-4-yl)-4-methyl-N-(3-(trifluoromethyl)phenyl)benzamide]	–	–	4 nM
Cc1ccc(NC(=O)c2cccc(C(F)(F)F)c2)cc1-c1cn(C)c(=O)c(N2CCOCC2)n1 [Example 119, N-(4-methyl-3-(4-methyl-6-morpholino-5-oxo-4,5-dihydropyrazin-2-yl)phenyl)-3-(trifluoromethyl)benzamide]	0.27 nM	0.4 nM	–
Cc1ccc(NC(=O)c2ccnc(C(C)(F)F)c2)cc1-c1cc(N2CCOCC2)n(C)c(=O)c1 [Example 471, 2-(1,1-difluoroethyl)-N-(4-methyl-3-(1-methyl-6-morpholino-2-oxo-1,2-dihydropyridin-4-yl)phenyl)isonicotinamide]	–	–	1 nM
Cc1ccc(NC(=O)c2cccc(C(F)(F)F)c2)cc1-c1csc(N2CCOCC2)n1 [Example 199, N-(4-methyl-3-(2-morpholinothiazol-4-yl)phenyl)-3-(trifluoromethyl)benzamide]	1.29 nM	3.6 nM	–
Cc1ccc(NC(=O)c2cnnc(C(F)(F)F)c2)cc1-c1cc(N2CCOCC2)c(OC2CCOCC2)nn1 [Example 577, N-(4-methyl-3-(5-morpholino-6-((tetrahydro-2H-pyran-4-yl)oxy)pyridazin-3-yl)phenyl)-6-(trifluoromethyl)pyridazine-4-carboxamide]	–	–	0.6 nM
